These results are taken from US5488055A, “Substituted N-cycloalkylmethyl-1H-pyrazolo(3,4-b)quinolin-4 amines and compositions and methods of use thereof” (Sanofi Winthrop Inc., priority 1995, dated 1996).

Structures are written as SMILES.

Test [1] relates to Spontaneously hypertensive rats. The test is described as follows: Reversal of nitrate-induced tolerance in nitroglycerin tolerant spontaneously hypertensive rats. The test is classed as in vivo, rat. How it is done: Spontaneously hypertensive rats (17-25 weeks of age) were made nitroglycerin tolerant by repeated administration of high doses of nitroglycerin (100 mg/kg, s.c., 3 times/day for 3 consecutive days). To confirm tolerance challenge doses of nitroglycerin were administered intravenously at doses ranging from 1-300 μg/kg and the maximum change in mean arterial pressure (MAP) for each dose was recorded. Groups of tolerant rats were pretreated with the compounds of the invention (tolerant pretreated group) or with vehicle (0.05 N NaOH) (tolerant vehicle pretreated group) intravenously 5-10 minutes prior to administration of challenge doses of nitroglycerin. The administration of challenge doses of nitroglycerin to non-tolerant rats (the non-tolerant group) caused a dose-dependent decrease in MAP of between 10 to 40 mm Hg. […] The area under the dose-MAP curve was calculated for the non-tolerant group and for the tolerant vehicle pretreated group and the tolerant pretreated group. The percent reversal of nitrate-induced tolerance was calculated as follows:
Percent Reversal=(AUCtol-pretreated -AUCtol-veh) /(AUCnontol
AUCnontol =the area under the dose-MAP curve for the non-tolerant group.
AUCtol-veh =the area under the dose-MAP curve for the tolerant vehicle pretreated group.
AUCtol-pretreated =the area under the dose-MAP curve for the tolerant pretreated group. […]

In test [2] the test system is cGMP-PDE V. The test is described as follows: c-GMP-PDE V inhibitory activity. The class given is biochemical, various animal species and man. Conditions: separate experimental runs. How it is done:
The cGMP-PDE and other PDE isozymes were isolated from cardiovascular tissues (heart and aorta) of various animal species and man by anion-exchange and affinity chromatography as described by Silver et al., Sec. Messeng. Phos. 13:13-25, 1991; PDE activity, in the presence and absence of test compounds was determined essentially as described by Thompson et al., Adv. Cyclic Nucleotide Res. 10:69-92. To determine the potency and selectivity of compounds as PDE inhibitors, compounds are screened for their effect on cyclic nucleotide hydrolysis at 10 μM. […] The IC50 values are calculated from concentration-response curves as described by Tallarida and Murray, Manual of Pharmacologic Calculations with Computer Programs, Procedure 8, Graded Dose-response, pp. 14-19, Springer-Verlag, New York, 1981.

The test system of test [3] is cGMP-PDE V. Conditions: read-out: Km for the hydrolysis of cGMP; isozyme of vascular smooth muscle and renal cells; cited from earlier work.

In general, IC50 refers to the point on the concentration scale where inhibition reaches its midpoint. A low value points to higher potency. Turning to `CCn1ncc2c(N[C@@H](C)C3CCCCC3)c3cc([N+](=O)[O-])ccc3nc21` [Example 34, 1-ethyl-6-nitro-N-[S(+)-1-(cyclohexyl)ethyl]-1H-pyrazolo[3,4-b]quinolin-4-amine], the “Percent (%) Reversal of Nitroglycerin-induced Tolerance” value in test [1] (1.0 mg/kg, intravenously 5-10 minutes prior to nitroglycerin challenge) amounted to 44%. In addition, the 50% inhibitory concentration (IC50) in the test on cGMP-PDE V [2] (first value) amounted to 0.22 nM; with cGMP-PDE V [2] (second value) it was 0.16 nM; with cGMP-PDE V [2] (third value), 0.08 nM.
Broadly, the Km is the substrate concentration at which the rate is half of its maximum. In the case of `Nc1nc2c(ncn2[C@@H]2O[C@@H]3COP(=O)(O)O[C@H]3[C@H]2O)c(=O)[nH]1` [cGMP, cyclic guanosine monophosphate], in the test on cGMP-PDE V [3], the Michaelis-Menten constant (Km) is 1 µM.
For the compound `O=[N+]([O-])OCC(CO[N+](=O)[O-])O[N+](=O)[O-]` [nitroglycerin, reference compound], the “hypotensive response to challenge doses of nitroglycerin, in words” value in test [1] (tolerant vehicle pretreated group) is given as “significant reduction of the hypotensive response”.
